Assay results as given in ChEMBL document CHEMBL1201862, “PubChem BioAssay data set” (2004).
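Protocol summary: plate cells (96-well), add compound at 5 concentrations, incubate 48 h, interpolate endpoints linearly. GI50 is the concentration that inhibits growth by half.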 Active and inactive are the calls of the source. Cut-off read from the data, not from the text of the source: active = GI50 up to about 1.1 µM and inactive = higher.

Columns and labels:
Test in all cases: inhibition of tumour cell growth, NCI panel, 48 h
[1] = system: RXF 393
[2] = system: SW-620
[3] = system: IGROV-1
[4] = system: OVCAR-8
[5] = system: MOLT-4
[6] = system: HCT-116
[7] = system: OVCAR-3
[8] = system: MDA-MB-231
[9] = system: SF-268
[10] = system: COLO 205
[11] = system: PC-3
[12] = system: KM12
[13] = system: UACC-257
[14] = system: EKVX
[15] = system: T47D
[16] = system: MDA-MB-435
[17] = system: MCF7
[18] = system: OVCAR-4
[19] = system: Hs-578T

Measured: GI50

O=c1sc2c(s1)SSSSS2
inactive: [1] > 50 µM | [2] > 50 µM | [3] > 50 µM | [4] > 50 µM | [5] 11.8 µM | [6] > 50 µM | [7] 41.9 µM | [8] > 50 µM | [9] 28.6 µM | [10] > 50 µM | [11] > 50 µM | [12] > 50 µM | [13] 28.6 µM | [14] > 50 µM | [15] > 50 µM | [16] > 50 µM | [17] 31.1 µM | [18] > 50 µM

CCOC(=O)CC1C(C(=O)OCC)=Cn2c([nH]c3cccc4cccc2c43)=C1C(=O)OCC (stereo not drawn)
inactive: [1] > 100 µM | [2] > 100 µM | [3] > 100 µM | [4] > 100 µM | [5] > 100 µM | [6] > 100 µM | [7] > 100 µM | [10] > 100 µM | [11] 91 µM | [12] > 100 µM | [13] > 100 µM | [14] > 100 µM | [15] 43.8 µM | [16] 54.3 µM | [17] > 100 µM | [18] > 100 µM

COc1c(N2CCCCC2)c2c(=O)c3ccccc3oc2c2cc(C)oc12
inactive: [1] 15.6 µM | [2] 8.81 µM | [4] 16.9 µM | [5] 4.03 µM | [6] 2.34 µM | [7] 18.8 µM | [8] 5.26 µM | [9] 17.9 µM | [10] 4.09 µM | [11] 12.7 µM | [12] 16.5 µM | [13] 33 µM | [14] 25.9 µM | [16] 28.6 µM | [19] 18.4 µM | [17] 16.7 µM | [18] 13.9 µM

Cc1oc(N)c(S(=O)(=O)/C(C#N)=C/c2ccccc2[N+](=O)[O-])c1C
inactive: [1] 21.9 µM | [2] 26.6 µM | [3] 24.9 µM | [5] 22.4 µM | [6] 20.8 µM | [7] 21.4 µM | [8] 32.9 µM | [9] 31 µM | [10] 21.7 µM | [11] 23.1 µM | [12] 25.2 µM | [13] 32.2 µM | [14] 33.7 µM | [15] 27 µM | [16] 32.7 µM | [17] 31.1 µM | [18] 38.5 µM

Cc1ccn2c(=O)cc(CN3CCOCC3)nc2c1
inactive: [2] > 100 µM | [3] > 100 µM | [4] > 100 µM | [5] > 100 µM | [6] > 100 µM | [7] > 100 µM | [8] > 100 µM | [9] > 100 µM | [10] > 100 µM | [11] > 100 µM | [12] > 100 µM | [13] > 100 µM | [14] > 100 µM | [16] > 100 µM | [19] > 100 µM | [17] > 100 µM | [18] > 100 µM

COc1cc(/C=C/C(=O)OC[C@H](Br)[C@H](OC(C)=O)c2ccc3c(c2)OCO3)cc(OC)c1OC
inactive: [1] > 100 µM | [2] > 100 µM | [3] > 100 µM | [4] > 100 µM | [5] 7.69 µM | [6] > 100 µM | [7] > 100 µM | [8] > 100 µM | [9] > 100 µM | [10] > 100 µM | [11] 86.3 µM | [12] > 100 µM | [13] > 100 µM | [14] > 100 µM | [15] 52.5 µM | [16] > 100 µM | [17] > 100 µM | [18] > 100 µM

CN(C(=O)/C=C/c1ccccc1)C1C2CN3CCC(O2)C13 (stereo not drawn)
inactive: [1] > 100 µM | [2] > 100 µM | [3] > 100 µM | [4] > 100 µM | [5] > 100 µM | [6] > 100 µM | [7] > 100 µM | [9] > 100 µM | [10] > 100 µM | [12] > 100 µM | [13] > 100 µM | [14] > 100 µM | [18] > 100 µM

COc1ccc(/C(=N/O)c2ccccc2C2=Nc3ccccc3C(NCc3ccccc3)O2)cc1C (stereo not drawn)
inactive: [1] 47.3 µM | [2] 21.8 µM | [3] 40.5 µM | [4] 27.2 µM | [5] 29.5 µM | [6] 25.8 µM | [7] 45.7 µM | [8] 32.7 µM | [9] 42.3 µM | [10] 17.2 µM | [11] 17.3 µM | [12] 46.2 µM | [13] 12.9 µM | [14] 74.5 µM | [16] 27.2 µM | [19] 40.8 µM | [17] 29.2 µM

COc1ccc(C2(CC(C)C)CCN(S(=O)(=O)c3ccc(C)cc3)C2)cc1OC (stereo not drawn)
inactive: [1] 34 µM | [2] 99.5 µM | [3] 50.2 µM | [5] 2.94 µM | [6] 20.2 µM | [7] 18.9 µM | [8] > 100 µM | [9] 21.9 µM | [10] 25.8 µM | [11] 28.5 µM | [12] 23.3 µM | [13] 28.5 µM | [14] 76.9 µM | [15] 14.4 µM | [16] 21.8 µM | [17] 32.2 µM | [18] 27.3 µM

O=C1C=Cc2c(I)sc(I)c21
inactive: [1] 20.6 µM | [2] 13.4 µM | [3] 15.9 µM | [4] 18.9 µM | [5] 12 µM | [6] 15.7 µM | [7] 19.3 µM | [8] 29.9 µM | [9] 12.4 µM | [10] 19 µM | [12] 20 µM | [13] 20 µM | [14] 26.1 µM | [15] 18.1 µM | [16] 19.4 µM | [17] 18.4 µM | [18] 20 µM

CSC(SC)=C(C#N)C(=O)Nc1cccc(Cl)c1
inactive: [1] > 100 µM | [2] 39.8 µM | [3] 69.2 µM | [4] 48.8 µM | [5] 20.5 µM | [6] 30.6 µM | [8] > 100 µM | [9] > 100 µM | [10] > 100 µM | [11] 50.4 µM | [12] > 100 µM | [13] > 100 µM | [14] > 100 µM | [16] > 100 µM | [19] > 100 µM | [17] 34.8 µM | [18] 27.9 µM

NNC(=O)c1nn[nH]c1C(=O)NN
inactive: [1] > 100 µM | [4] > 100 µM | [5] > 100 µM | [6] > 100 µM | [7] > 100 µM | [8] > 100 µM | [9] > 100 µM | [10] > 100 µM | [11] > 100 µM | [12] > 100 µM | [13] > 100 µM | [16] > 100 µM | [17] > 100 µM | [18] > 10 µM
